The values below come from PubChem BioAssay AID180 (DTP/NCI, 2004).

Structures are written as SMILES. Several values for one entry are separate records, joined by “and”; a condition that tells them apart may be missing. Identical values can stand only once.

In this test the test system is BDF1 mice, Adenocarcinoma 755 s.c., tumor weight T/C. The test can be described thus: NCI In Vivo Anticancer Drug Screen. Data for tumor model Adenocarcinoma 755 (subcutaneous) in B6D2F1 (BDF1) mice. The following applies: endpoint: mean tumor weight, schedule: Q01DX011 (ip), higher = larger tumour. The method, boiled down: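 Readout: T/C, i.e. treated-group measurement over vehicle-control measurement. Endpoint is survival or tumor size in tumor-bearing mice given compound.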

The term T/C denotes the result in the treated group divided by that in the control group, in per cent.

As for `CC1CN1P1(N2CC2C)=NP(N2CC2C)(N2CC2C)=NP(N2CC2C)(N2CC2C)=N1` (stereo not drawn), the T/C (dose: 3.0 mg/kg/injection, vehicle: saline) was 81 % of control; the T/C (dose: 5.0 mg/kg/injection, vehicle: saline) is 53 % of control; the T/C (dose: 9.0 mg/kg/injection, vehicle: saline) was 52 % of control; the T/C (dose: 18.0 mg/kg/injection, vehicle: saline) is 20 % of control and 35 % of control; the T/C (dose: 36.0 mg/kg/injection, vehicle: saline) is 9 % of control; the T/C (dose: 75.0 mg/kg/injection, vehicle: saline) is 24 % of control.
Turning to `Nc1nc(SCC(=O)c2ccccc2)c2ncn(C3OC(CO)C(O)C3O)c2n1` (stereo not drawn), the T/C (dose: 37.5 mg/kg/injection, vehicle: methylcellulose (MC)) was 15 % of control; the T/C (dose: 75.0 mg/kg/injection, vehicle: methylcellulose (MC)) was 5 % of control; the T/C (dose: 150.0 mg/kg/injection, vehicle: methylcellulose (MC)) is 5 % of control.
As to `O=c1[nH]cc(F)c(=O)[nH]1`, the T/C is, setting by setting: (dose: 3.38 mg/kg/injection, vehicle: carboxymethylcellulose (CMC)) 106 % of control; (dose: 3.87 mg/kg/injection, vehicle: carboxymethylcellulose (CMC)) 61 % of control; (dose: 4.13 mg/kg/injection, vehicle: carboxymethylcellulose (CMC)) 48 % of control and 71 % of control; (dose: 6.25 mg/kg/injection, vehicle: methylcellulose (MC)) 91 % of control; (dose: 6.75 mg/kg/injection, vehicle: carboxymethylcellulose (CMC)) 75 % of control; (dose: 7.75 mg/kg/injection, vehicle: carboxymethylcellulose (CMC)) 103 % of control and 85 % of control. In addition, the T/C is 151 % of control and 159 % of control (dose: 8.27 mg/kg/injection, vehicle: carboxymethylcellulose (CMC)); 156 % of control (dose: 10.8 mg/kg/injection, vehicle: carboxymethylcellulose (CMC)); 44 % of control (dose: 12.5 mg/kg/injection, vehicle: methylcellulose (MC)); 76 % of control (dose: 13.24 mg/kg/injection, vehicle: carboxymethylcellulose (CMC)); 100 % of control and 224 % of control and 75 % of control (dose: 16.55 mg/kg/injection, vehicle: carboxymethylcellulose (CMC)); 108 % of control (dose: 18.0 mg/kg/injection, vehicle: carboxymethylcellulose (CMC)). For the same compound, the T/C was 15 % of control (dose: 20.0 mg/kg/injection, vehicle: saline); 59 % of control (dose: 22.06 mg/kg/injection, vehicle: carboxymethylcellulose (CMC)); 13 % of control (dose: 25.0 mg/kg/injection, vehicle: methylcellulose (MC)); 34 % of control (dose: 25.0 mg/kg/injection, vehicle: saline); 18 % of control and 27 % of control (dose: 27.0 mg/kg/injection, vehicle: carboxymethylcellulose (CMC)); 11 % of control (dose: 30.0 mg/kg/injection, vehicle: saline). In addition, the T/C (dose: 33.1 mg/kg/injection, vehicle: carboxymethylcellulose (CMC)) was 27 % of control.
On to `Cn1cnc([N+](=O)[O-])c1Sc1nc(N)nc2c1ncn2C1OC(CO)C(O)C1O` (stereo not drawn), for which the T/C (dose: 0.03 mg/kg/injection, vehicle: methylcellulose (MC)) is 89 % of control; the T/C (dose: 0.06 mg/kg/injection, vehicle: methylcellulose (MC)) was 76 % of control; the T/C (dose: 0.11 mg/kg/injection, vehicle: methylcellulose (MC)) is 14 % of control; the T/C (dose: 0.22 mg/kg/injection, vehicle: methylcellulose (MC)) is 1 % of control and 2 % of control; the T/C (dose: 0.44 mg/kg/injection, vehicle: methylcellulose (MC)) is 2 % of control; the T/C (dose: 0.88 mg/kg/injection, vehicle: methylcellulose (MC)) is 1 % of control. The T/C (dose: 1.75 mg/kg/injection, vehicle: methylcellulose (MC)) was 2 % of control.
As to `CCOC(=O)C1=C(C)NC(C)=C(C(=O)OCC)C1C`, the T/C (dose: 31.2 mg/kg/injection, vehicle: other) was 85 % of control; the T/C (dose: 62.5 mg/kg/injection, vehicle: other) is 77 % of control; the T/C (dose: 125.0 mg/kg/injection, vehicle: other) was 79 % of control and 81 % of control.
In the case of `CCCCCCCCSc1ncnc2c1ncn2CCCC`, the T/C is, setting by setting: (dose: 93.0 mg/kg/injection, vehicle: saline) 92 % of control; (dose: 250.0 mg/kg/injection, vehicle: saline) 97 % of control; (dose: 375.0 mg/kg/injection, vehicle: saline) 77 % of control.
Turning to `CCOc1ccccc1Nc1nc(N)nc(Cl)c1CC`, the T/C reads like this: (dose: 15.0 mg/kg/injection, vehicle: methylcellulose (MC)) 73 % of control; (dose: 31.0 mg/kg/injection, vehicle: methylcellulose (MC)) 79 % of control; (dose: 62.0 mg/kg/injection, vehicle: methylcellulose (MC)) 87 % of control; (dose: 125.0 mg/kg/injection, vehicle: methylcellulose (MC)) 98 % of control; (dose: 250.0 mg/kg/injection, vehicle: methylcellulose (MC)) 100 % of control.
For `CN1CCC(OC(N)=O)CC1`, the T/C (dose: 44.0 mg/kg/injection, vehicle: carboxymethylcellulose (CMC)) was 84 % of control; the T/C (dose: 87.5 mg/kg/injection, vehicle: carboxymethylcellulose (CMC)) was 96 % of control; the T/C (dose: 100.0 mg/kg/injection, vehicle: carboxymethylcellulose (CMC)) is 70 % of control; the T/C (dose: 155.0 mg/kg/injection, vehicle: carboxymethylcellulose (CMC)) was 54 % of control; the T/C (dose: 175.0 mg/kg/injection, vehicle: carboxymethylcellulose (CMC)) was 65 % of control; the T/C (dose: 230.0 mg/kg/injection, vehicle: carboxymethylcellulose (CMC)) was 46 % of control. In addition, the T/C (dose: 525.0 mg/kg/injection, vehicle: carboxymethylcellulose (CMC)) was 43 % of control.
